Data reported in US12728125B2, “Methods for treating neutropenia” (X4 Pharmaceuticals, Inc., priority 2020, dated 2026).
Marks after values point to notes of the source that are not given here. Values belong to the molecule of their own block, whether it stands above or below them.

Tests used:
[1] = system: circulating CFU-GM, BFU-E, CFU-GEMM progenitor cells and nucleated cells; assay: Progenitor/stem cell mobilization in mice after single subcutaneous injection; assay type: in vivo, C3H/HeJ mice
Procedure: A further study was conducted to determine whether X4P-001 mobilizes progenitor/stem cells in mice. All experiments were performed in […] mice. X4P-001 and AMD3 100/plerixafor were administered via single subcutaneous injection at the doses described below. The mobilization capacity of X4P-001 was assessed by the numbers of granulocyte-macrophage (CFU-GM), erythroid (BFU-E) and multipotential (CFU-GEMM) progenitor cells per mL of blood. The progenitors were stimulated to form colonies in vitro with the combination of 1 U/mL rhu EPO, 50 ng/mL rmu SLF, 5% vol/vol pokeweed mitogen mouse spleen cell conditioned medium (PWMSCM), and 0.1 mM hemin. Plates were scored 7 days after incubation at 37° C., […] and in a humidified chamber.
In the first experiment (data shown in Table 7), mice received a dose of 5 mg/kg- and the number of progenitors in the circulating blood was measured at various time points (0.25, 0.5, 1, 2, 6 and 24 hours).
An X4P-001 dose-response was performed by measurement of the number of circulating progenitors in the blood at 1 hour post-injection at various doses (1.5, 2.5, 5, 10 and 20 mg/kg).
A final experiment was performed to compare the progenitor cell mobilization capacity of X4P-001 and AMD3100/plerixafor.

[2] = system: WBC, neutrophil and lymphocyte counts; assay: Hematologic effects of a single oral dose in the male Beagle dog; assay type: in vivo
Procedure: Three fasted male Beagle dogs received a single dose of X4P-001 in aqueous solution by oral gavage at dose levels of 5, 15, and 35 mg/kg (1 dog per dose level) in a volume of 1 mL/kg. Blood samples (approximately 3 mL each) were obtained at multiple timepoints from each animal by direct venipuncture of the jugular vein and collected using Vacutainer® tubes containing K3EDTA as the anticoagulant. Blood samples were obtained at pre-dose, and 0.25, 0.5, 0.75, 1, 1.5, 2, 3, 4, 7, 12, and 24 hours post-dose. Blood samples were stored at ambient room temperature prior to automated differential analysis.
Body weights were determined prior to dosing on the day of test article administration.
Hematology parameters included the following: • White Blood Cell Count (WBC) • Differential white blood cell count (absolute and relative) • Neutrophil • Lymphocytes • Monocytes • Eosinophils • Basophils • Large Unstained Cells (LUC) • Hematocrit (HCT) • Hemoglobin (HGB) • Mean Corpuscular Hemoglobin (MCH) • Mean Corpuscular Hemoglobin Concentration (MCHC) • Mean Corpuscular Volume (MCV) • Platelet Count (PLT). • Red Blood Cell Count (RBC) Results

CXCR4 = CXCR4 (Homo sapiens, UniProt P61073); settings: SDF-1α dose/response in calcium flux with increasing X4P-001; cited from earlier work
[3] = in vivo
Procedure: In certain embodiments, the dosage composition may be provided twice a day in divided dosage, approximately 12 hours apart. In other embodiments, the dosage composition may be provided once daily.

[4] = 400-mg single-dose subject (Stone, 2007); cited from earlier work
[5] = system: hematology and coagulation; assay: 28-day GLP oral (capsule) toxicity study in the Beagle dog with 14-day recovery; assay type: in vivo
Procedure: A 28-Day GLP oral (capsule) toxicology study was conducted with […]-001 in the male and female beagle dog, and hematology effects were observed, with […]-001 administered twice-daily (at least 7 hours apart) by oral capsule for 28 days. A subset of treated animals was evaluated after a 14-day recovery period. [table] [table]

[6] = human, in vivo
Procedure: In some embodiments, the dose is selected to provide consistent clinically relevant elevations of both ANC and ALC, with low risk of significant adverse effects. Dosage of 400 mg per day BID for 3.5 days (healthy volunteers) (Stone 2007) and 200 mg BID for 8-10 days (healthy volunteers and HIV patients) were well-tolerated with no pattern of adverse events or clinically significant laboratory changes.

[7] = cited from earlier work; for Bone pain incidence, as high as: Ferguson 2015 (filgrastim), Kirshner 2012 (pegfilgrastim)
[8] = Table 9 comparison, 5 mg/kg s.c., @ - 60″ (1 h)
[9] = Table 7 time course, 5 mg/kg s.c., @ - 2′ (2 h)
[10] = Table 7 time course, 5 mg/kg s.c., @ - 6′ (6 h)
[11] = Table 7 time course, 5 mg/kg s.c., @ - 15″ ([…])
[12] = Table 7 time course, 5 mg/kg s.c., @ - 24′ (24 h)
[13] = Table 7 time course, 5 mg/kg s.c., @ - 30″ (0.5 h)
[14] = Table 7 time course, 5 mg/kg s.c., @ - 60″ (1 h)
[15] = Table 8 dose response, 1 hour post-injection, 1.5 mg/kg
[16] = Table 8 dose response, 1 hour post-injection, 5 mg/kg
[17] = Table 8 dose response, 1 hour post-injection, 10 mg/kg
[18] = Table 8 dose response, 1 hour post-injection, 20 mg/kg
[19] = Table 9 comparison, 5 mg/kg s.c., @ - 2′ (2 h)
[20] = Table 9 comparison, 5 mg/kg s.c., @ - 15″ ([…])
[21] = Table 9 comparison, 5 mg/kg s.c., @ - 30″ (0.5 h)
[22] = females, 10 mg/kg/d, Day 28, p < 0.05
[23] = females, 30 mg/kg/d, Day 28, p < 0.05
[24] = females, 100 mg/kg/d, Day 28, p < 0.05
[25] = males, 100 mg/kg/d, Day 28, p < 0.05

Chain of CXCR4 (P61073 whole entry): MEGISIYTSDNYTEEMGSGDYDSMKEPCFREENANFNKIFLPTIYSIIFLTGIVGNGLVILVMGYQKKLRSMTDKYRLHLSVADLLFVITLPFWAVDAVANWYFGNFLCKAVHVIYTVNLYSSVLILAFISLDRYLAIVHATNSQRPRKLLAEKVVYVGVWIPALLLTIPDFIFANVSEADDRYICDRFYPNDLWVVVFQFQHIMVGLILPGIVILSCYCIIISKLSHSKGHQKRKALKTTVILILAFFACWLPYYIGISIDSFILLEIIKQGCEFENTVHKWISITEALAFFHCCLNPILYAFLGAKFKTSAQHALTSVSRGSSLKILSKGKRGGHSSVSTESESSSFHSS

Molecule: c1cc(CN2CCCNCCNCCCNCC2)ccc1CN1CCCNCCNCCCNCC1 [AMD3100, plerixafor, reference compound]
BFU (BFU-E), Mean [1, 8]: 207.7 per mL of blood | GEMM (CFU-GEMM), Mean [1, 8]: 138.5 per mL of blood | GM (CFU-GM), Mean [1, 8]: 1950.3 per mL of blood

Terminal half-life [3]: approximately 14.5 hrs
Molecule: NCCCCN(Cc1nc2ccccc2[nH]1)[C@H]1CCCc2cccnc21 [Mavorixafor, mavorixafor]
Time at which increases typically peaked ([2]; 5, 15, 35 mg/kg oral): 12 h | Other hematological effects ([2]; single oral dose 5, 15, 35 mg/kg): No other hematological effects were observed | Mode of CXCR4 inhibition (CXCR4): allosteric inhibitor | Increase in circulating white blood cells (leukocytosis) above baseline [4]: 2.9 fold | BFU (BFU-E), Mean [1, 9]: 165.3 per mL of blood | GEMM (CFU-GEMM), Mean [1, 9]: 68.9 per mL of blood | GM (CFU-GM), Mean [1, 9]: 897.5 per mL of blood | BFU (BFU-E), Mean [1, 10]: 99.9 per mL of blood | GEMM (CFU-GEMM), Mean [1, 10]: 37.6 per mL of blood | GM (CFU-GM), Mean [1, 10]: 387.5 per mL of blood | BFU (BFU-E), Mean [1, 11]: 148.8 per mL of blood | GEMM (CFU-GEMM), Mean [1, 11]: 65.6 per mL of blood | GM (CFU-GM), Mean [1, 11]: 785.1 per mL of blood | BFU (BFU-E), Mean [1, 12]: 84.6 per mL of blood | GEMM (CFU-GEMM), Mean [1, 12]: 37.7 per mL of blood | GM (CFU-GM), Mean [1, 12]: 386.3 per mL of blood | BFU (BFU-E), Mean [1, 13]: 230.4 per mL of blood | GEMM (CFU-GEMM), Mean [1, 13]: 99.6 per mL of blood | GM (CFU-GM), Mean [1, 13]: 1273.8 per mL of blood | BFU (BFU-E), Mean [1, 14]: 235.1 per mL of blood | GEMM (CFU-GEMM), Mean [1, 14]: 103.1 per mL of blood | GM (CFU-GM), Mean [1, 14]: 866.0 per mL of blood | BFU (BFU-E), Mean [1, 15]: 143.8 per mL of blood | GEMM (CFU-GEMM), Mean [1, 15]: 53.3 per mL of blood | GM (CFU-GM), Mean [1, 15]: 428.0 per mL of blood | BFU (BFU-E), Mean [1, 16]: 181.6 per mL of blood | GEMM (CFU-GEMM), Mean [1, 16]: 141.0 per mL of blood | GM (CFU-GM), Mean [1, 16]: 1119.8 per mL of blood | BFU (BFU-E), Mean [1, 17]: 268.1 per mL of blood | GEMM (CFU-GEMM), Mean [1, 17]: 224.4 per mL of blood | GM (CFU-GM), Mean [1, 17]: 1444.2 per mL of blood | BFU (BFU-E), Mean [1, 18]: 261.4 per mL of blood | GEMM (CFU-GEMM), Mean [1, 18]: 145.0 per mL of blood | GM (CFU-GM), Mean [1, 18]: 1314.2 per mL of blood | BFU (BFU-E), Mean [1, 19]: 108.5 per mL of blood | GEMM (CFU-GEMM), Mean [1, 19]: 62.4 per mL of blood | GM (CFU-GM), Mean [1, 19]: 619.6 per mL of blood | BFU (BFU-E), Mean [1, 20]: 188.9 per mL of blood | GEMM (CFU-GEMM), Mean [1, 20]: 93.8 per mL of blood | GM (CFU-GM), Mean [1, 20]: 588.3 per mL of blood | BFU (BFU-E), Mean [1, 21]: 151.9 per mL of blood | GEMM (CFU-GEMM), Mean [1, 21]: 79.0 per mL of blood | GM (CFU-GM), Mean [1, 21]: 705.9 per mL of blood | BFU (BFU-E), Mean [1, 8]: 144.3 per mL of blood | GEMM (CFU-GEMM), Mean [1, 8]: 102.2 per mL of blood | GM (CFU-GM), Mean [1, 8]: 761.4 per mL of blood | Hematology results after the 14-day recovery period ([5]; 100 mg/kg dose group): returned to within normal levels | Lymphocytes (abs), increase ([5]; females, 10 mg/kg/d, Day 28): F incr 1.4× | Monocytes (abs), increase [5, 22]: F incr 1.6×† | Neutrophils (abs), increase [5, 22]: F incr 1.9×† | Lymphocytes (abs), increase [5, 23]: F incr 1.6×† | Monocytes (abs), increase [5, 23]: F incr 1.9×† | Neutrophils (abs), increase [5, 23]: F incr 2.3×† | Lymphocytes (abs), increase [5, 24]: F incr 1.4×† | Monocytes (abs), increase [5, 24]: F incr 2.4×† | Neutrophils (abs), increase [5, 24]: F incr 2.8×† | Reticulocytes, decrease [5, 24]: F decr 0.24† | Lymphocytes (abs), increase ([5]; males, 10 mg/kg/d, Day 28): M incr 1.3×; | Monocytes (abs), increase ([5]; males, 10 mg/kg/d, Day 28): M incr 1.2×; | Neutrophils (abs), increase ([5]; males, 10 mg/kg/d, Day 28): M incr 1.2×; | Lymphocytes (abs), increase ([5]; males, 30 mg/kg/d, Day 28): M incr 1.6×; | Monocytes (abs), increase ([5]; males, 30 mg/kg/d, Day 28): M incr 1.3×; | Neutrophils (abs), increase ([5]; males, 30 mg/kg/d, Day 28): M incr 1.2×; | Neutrophils (abs), increase ([5]; males, 100 mg/kg/d, Day 28): M incr 1.8×; | Lymphocytes (abs), increase [5, 25]: M incr 2.3×†; | Monocytes (abs), increase [5, 25]: M incr 1.9×†; | Overall tolerability in clinical studies [6]: generally well tolerated

B1: pegfilgrastim (protein, chains of the INN, looked up)
chain: TPLGPASSLPQSFLLKCLEQVRKIQGDGAALQEKLCATYKLCHPEELVLLGHSLGIPWAPLSSCPSQALQLAGCLSQLHSGLFLYQGLLQALEGISPELGPTLDTLQLDVADFATTIWQQMEELGMAPALQPTQGAMPAFASAFQRRAGGVLVASHLQSFLEVSYRVLRHLAQP
modifications: PEG conjugate, N-terminal methionine
notes: pegylated G-CSF
Bone pain incidence, as high as [7]: 59% | Severe bone pain incidence ([7]; Kirshner et al. 2012): 24%

B2: filgrastim (protein, chains of the INN, looked up)
chain: MTPLGPASSLPQSFLLKCLEQVRKIQGDGAALQEKLCATYKLCHPEELVLLGHSLGIPWAPLSSCPSQALQLAGCLSQLHSGLFLYQGLLQALEGISPELGPTLDTLQLDVADFATTIWQQMEELGMAPALQPTQGAMPAFASAFQRRAGGVLVASHLQSFLEVSYRVLRHLAQP
modifications: N-terminal methionine, recombinant
notes: granulocyte colony-stimulating factor, standard of care for severe chronic neutropenia
Bone pain incidence, as high as [7]: 66% | Bone pain incidence reported on label ([7]; label): 24%
